Measurements from US8901087B2, “Selective glycosidase inhibitors and uses thereof” (priority 2010, dated 2014).
pEC50, pKi: −log10 of the molar value.

Assays:
[1] = target: human O-GlcNAcase (Homo sapiens (Human), UniProt O60502); experiment: Fluorescence-based assay for determination of KI values for inhibition of O-GlcNAcase activity; type: biochemical; settings: purified human O-GlcNAcase, 4-Methylumbelliferyl N-acetyl-β-D-glucosaminide substrate, pH 7.0, Cheng-Prusoff; read-out: Fluorescence-based hOGA Ki
Sequence of human O-GlcNAcase (O60502 whole entry): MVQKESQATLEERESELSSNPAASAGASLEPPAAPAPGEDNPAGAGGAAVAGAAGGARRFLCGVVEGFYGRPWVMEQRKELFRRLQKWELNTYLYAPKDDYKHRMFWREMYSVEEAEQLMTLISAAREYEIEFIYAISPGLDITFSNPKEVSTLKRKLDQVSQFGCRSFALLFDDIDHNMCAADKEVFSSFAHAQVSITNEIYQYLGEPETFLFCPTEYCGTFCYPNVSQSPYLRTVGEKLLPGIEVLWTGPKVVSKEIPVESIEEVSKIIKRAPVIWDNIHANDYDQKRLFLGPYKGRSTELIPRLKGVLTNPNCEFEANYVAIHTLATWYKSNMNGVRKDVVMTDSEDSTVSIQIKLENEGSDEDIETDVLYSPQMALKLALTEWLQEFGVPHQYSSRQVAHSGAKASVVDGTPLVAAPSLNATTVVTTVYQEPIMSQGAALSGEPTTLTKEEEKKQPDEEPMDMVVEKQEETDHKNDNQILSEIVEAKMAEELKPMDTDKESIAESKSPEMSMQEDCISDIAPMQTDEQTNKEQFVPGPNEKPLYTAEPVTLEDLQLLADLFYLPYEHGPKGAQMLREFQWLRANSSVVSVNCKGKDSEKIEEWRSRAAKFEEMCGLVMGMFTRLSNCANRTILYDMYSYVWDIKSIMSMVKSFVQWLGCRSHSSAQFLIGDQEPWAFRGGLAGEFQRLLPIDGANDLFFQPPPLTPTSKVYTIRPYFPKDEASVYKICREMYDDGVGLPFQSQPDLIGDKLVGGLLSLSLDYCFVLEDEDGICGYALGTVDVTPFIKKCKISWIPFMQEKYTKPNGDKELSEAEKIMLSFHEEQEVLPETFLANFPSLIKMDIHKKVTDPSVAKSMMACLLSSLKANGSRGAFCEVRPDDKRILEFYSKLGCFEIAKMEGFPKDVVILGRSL
Procedure: Assay for Determination of KI Values for Inhibition of O-GlcNAcase Activity
Experimental Procedure for Kinetic Analyses
Enzymatic reactions are carried out in a reaction containing 50 mM NaH2PO4, 100 mM NaCl and 0.1% BSA (pH 7.0) using 2 mM 4-Methylumbelliferyl N-acetyl-β-D-glucosaminide dihydrate (Sigma M2133) dissolved in ddH2O, as a substrate. The amount of purified human O-GlcNAcase enzyme used in the reaction is 0.7 nM. Test compound of varying concentrations is added to the enzyme prior to initiation of the reaction. The reaction is performed at room temperature in a 96-well plate and is initiated with the addition of substrate. […] The slope of product production is determined for each concentration of compound tested and plotted, using standard curve fitting algorithms for sigmoidal dose response curves. The values for a four parameter logistic curve fit of the data are determined.

[2] = target: O-GlcNAcase (Rattus norvegicus, UniProt Q8VIJ5); experiment: Cell-based ELISA for cellular activity of O-GlcNAcase inhibitors (O-GlcNAcylated protein level, RL-2 antibody); settings: increase in O-GlcNAcylated protein, cells treated 24 hours, RL-2 antibody ELISA
Sequence of O-GlcNAcase (Q8VIJ5 whole entry, looked up): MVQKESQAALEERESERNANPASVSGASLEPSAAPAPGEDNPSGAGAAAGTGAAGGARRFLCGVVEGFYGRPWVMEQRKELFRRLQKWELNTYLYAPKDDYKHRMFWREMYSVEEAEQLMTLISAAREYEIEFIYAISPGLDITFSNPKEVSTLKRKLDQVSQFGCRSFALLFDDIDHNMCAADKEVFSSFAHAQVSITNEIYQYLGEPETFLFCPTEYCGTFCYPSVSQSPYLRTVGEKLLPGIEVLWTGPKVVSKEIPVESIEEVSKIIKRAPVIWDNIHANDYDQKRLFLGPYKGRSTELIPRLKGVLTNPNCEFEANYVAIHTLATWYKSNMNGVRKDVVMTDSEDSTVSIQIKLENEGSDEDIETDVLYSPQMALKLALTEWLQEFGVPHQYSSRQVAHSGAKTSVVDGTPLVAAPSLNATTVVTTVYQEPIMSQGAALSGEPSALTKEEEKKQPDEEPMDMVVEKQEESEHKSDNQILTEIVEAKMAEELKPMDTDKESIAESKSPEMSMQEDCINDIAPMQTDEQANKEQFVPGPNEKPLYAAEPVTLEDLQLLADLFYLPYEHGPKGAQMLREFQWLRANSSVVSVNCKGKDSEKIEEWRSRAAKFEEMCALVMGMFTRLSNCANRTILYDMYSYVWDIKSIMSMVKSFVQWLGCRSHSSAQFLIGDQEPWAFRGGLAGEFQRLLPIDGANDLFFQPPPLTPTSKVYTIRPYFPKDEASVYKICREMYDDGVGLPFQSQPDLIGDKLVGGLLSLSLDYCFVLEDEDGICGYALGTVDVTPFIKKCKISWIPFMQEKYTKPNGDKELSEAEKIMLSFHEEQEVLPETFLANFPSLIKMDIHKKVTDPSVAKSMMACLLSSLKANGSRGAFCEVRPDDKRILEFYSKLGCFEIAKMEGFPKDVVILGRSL
Excerpt: Assay for Determination of Cellular Activity for Compounds that Inhibit O-GlcNAcase Activity
Inhibition of O-GlcNAcase, which removes O-GlcNAc from cellular proteins, results in an increase in the level of O-GlcNAcylated protein in cells. An increase in O-GlcNAcylated protein can be measured by an antibody, such as RL-2, that binds to O-GlcNAcylated protein. The amount of O-GlcNAcylated protein:RL2 antibody interaction can be measured by enzyme linked immunosorbant assay (ELISA) procedures.

`CN(C)C1=N[C@@H]2[C@@H](OCc3ccccc3)[C@H](COCc3ccccc3)[C@@H](C(O)C3SCCCS3)O[C@@H]2S1` (some centres unmarked) [Example 96] showed a pKi [1] of 9.72 and a pEC50 [2] of 8.34.
